Laboratory results: US20230391772A1, “METHODS AND COMPOSITIONS FOR TARGETED PROTEIN DEGRADATION” (Ranok Therapeutics (Hangzhou) Co. Ltd., priority 2020, published 2023)

Tests used:
HSP90a protein = target: T1, HSP90a protein (Homo sapiens, UniProt P07900); assay: HSP90α-binding fluorescent polarization (FP) assay, BODIPY-labeled RNK04010 probe; conditions: FP competition with RNK04010 (BODIPY-labeled), 5 nM, 300 min at 25° C.
T1 construct: purchased BPS Bioscience 50298
Method in brief: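 Compounds (20 μM down to 5.2 nM, 2.5-fold steps) compete with a 5 nM fluorescent tracer for N-terminal HSP90a, measured by fluorescence polarization. With FITC-geldanamycin, plates sit 120 min at 25 °C. With BODIPY-RNK04010, they sit 300 min at 25 °C.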

[1] = tested on: MIA PaCa-2 human pancreatic carcinoma; assay: MIA PaCa-2 CCK-8 proliferation assay; type: cell-based; conditions: Homo sapiens, MIA PaCa-2, 72 h, MIA PaCa-2 cells
Method in brief: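 CCK-8 absorbance readout; % inhibition = 100 − (compound − blank)/(DMSO − blank) × 100, blank = medium + DMSO, no cells. Dose range 20 μM down to 1.02 nM, 3-fold steps. KRAS(G12C) copy number: MIA PaCa-2 2; NCI-H358 1; NCI-H23 1.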

KRAS(G12C) = KRAS(G12C) (Homo sapiens, UniProt P01116, G12C); assay: KRAS(G12C)/SOS1 homogeneous time-resolved fluorescence (HTRF) assay; design: purchased Cisbio 63ADK000CB16PEG; conditions: absence of GTP, 4° C. for 3 hr, read-out: KRAS (G12C) binding
KRAS(G12C), sequence (P01116 1-188 isoform P01116-2 G12C): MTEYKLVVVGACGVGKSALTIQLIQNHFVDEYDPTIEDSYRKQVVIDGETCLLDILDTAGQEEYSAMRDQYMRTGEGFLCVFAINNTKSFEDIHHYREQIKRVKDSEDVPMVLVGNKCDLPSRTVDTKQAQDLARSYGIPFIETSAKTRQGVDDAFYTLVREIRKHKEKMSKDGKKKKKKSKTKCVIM
Description: KRAS(G12C)/SOS1 Homogeneous Time-Resolved Fluorescence (HTRF) Assay
Binding of test compounds to KRAS(G12C) protein, which in turn blocks KRAS(G12C) interaction with the SOS1 protein, was measured in the absences of GTP by homogeneous time-resolved fluorescence (HTRF) using the KRAS-G12C/SOS1 Binding Assay Kit (Cisbio, #63ADK000CB16PEG), following the manufacturer's instructions, except as noted. 3-fold serial dilutions of each test compound were prepared ranging from […] to 1.02 nM. The test compound was mixed and incubated with reaction components, incubated in a sealed plate at 4° C. for 3 hr and fluorescence was measured using a PerkinElmer Envision plate reader.

IC50 (HSP90a protein) [µM] | EC50 [1] [µM] | IC50 (KRAS(G12C)) [µM] | Compound
< 0.1 | > 1 | < 0.1 | C=CC(=O)N1CCN(c2nc(OC[C@@H]3C[C@H](N4CCC(C(=O)NCCOCCOc5ccc(-n6c(O)nnc6-c6cc(CC)c(O)cc6O)cc5)CC4)CN3C)nc3c2CCN(c2cccc4cccc(Cl)c24)C3)C[C@@H]1CC#N [Compound 335, 1-[(3S,5S)-5-({[7-(8-chloronaphthalen-1-yl)-4-[(3S)-3-(cyanomethyl)-4-(prop-2-enoyl)piperazin-1-yl]-5H,6H,8H-pyrido[3,4-d]pyrimidin-2-yl]oxy}methyl)-1-methylpyrrolidin-3-yl]-N-[2-(2-{4-[3-(5-ethyl-2,4-dihydroxyphenyl)-5-hydroxy-1,2,4-tri-azol-4-yl]phenoxy}ethoxy)ethyl]piperidine-4-carboxamide]
< 0.1 | 0.1 to 1 | 0.1 to 1 | C=CC(=O)N1CCN(c2nc(OC[C@@H]3C[C@H](N4CCC(C(=O)NCCc5ccc(CN6CCC(Cc7ccc(-n8c(C(=O)NCC(F)(F)F)nnc8-c8cc(C(C)C)c(O)cc8O)cc7)CC6)cc5)CC4)CN3C)nc3c2CCN(c2cccc4cccc(Cl)c24)C3)C[C@@H]1CC#N [Compound 330, 1-[(3S,5S)-5-({[7-(8-chloronaphthalen-1-yl)-4-[(3S)-3-(cyanomethyl)-4-(prop-2-enoyl)piperazin-1-yl]-5H,6H,8H-pyrido[3,4-d]pyrimidin-2-yl]oxy}methyl)-1-methylpyrrolidin-3-yl]-N-[2-(4-{[4-({4-[3-(2,4-dihydroxy-5-isopropylphenyl)-5-[(2,2,2-trifluoroethyl)carbamoyl]-1,2,4-triazol-4-yl]phenyl}methyl)piperidin-1-yl]methyl}phenyl)ethyl]piperidine-4-carboxamide]
< 0.1 | > 1 | > 1 | C=CC(=O)N1CCN(c2nc(OCC3CN(C(=O)c4ccc(-n5c(O)nnc5-c5cc(C(C)C)c(O)cc5O)cc4)C3)nc3c2CCN(c2cccc4cccc(Cl)c24)C3)C[C@@H]1CC#N [Compound 221, (S)-2-(1-acryloyl-4-(7-(8-chloronaphthalen-1-yl)-2-((1-(4-(3-(2,4-dihydroxy-5-isopropylphenyl)-5-hydroxy-4H-1,2,4-triazol-4-yl)benzoyl)azetidin-3-yl)methoxy)-5,6,7,8-tetrahydropyrido[3,4-d]pyrimidin-4-yl)piperazin-2-yl)acetonitrile]
< 0.1 | 0.1 to 1 | < 0.1 | C=CC(=O)N1CCN(c2nc(OC[C@@H]3C[C@H](C(=O)NCCc4ccc(-n5c(O)nnc5-c5cc(C(C)C)c(O)cc5O)cc4)CN3C)nc3c2CCN(c2cccc4cccc(Cl)c24)C3)C[C@@H]1CC#N [Compound 345, (3S,5S)-5-({[7-(8-chloronaphthalen-1-yl)-4-[(3S)-3-(cyanomethyl)-4-(prop-2-enoyl)piperazin-1-yl]-5H,6H,8H-pyrido[3,4-d]pyrimidin-2-yl]oxy}methyl)-N-(2-{4-[3-(2,4-dihydroxy-5-isopropylphenyl)-5-hydroxy-1,2,4-triazol-4-yl]phenyl}ethyl)-1-methylpyrrolidine-3-carboxamide]
< 0.1 | > 1 | 0.1 to 1 | C=CC(=O)N1CCN(c2nc(OCCN3CCC(C(=O)N4CCC(Cc5ccc(-n6c(O)nnc6-c6cc(C(C)C)c(O)cc6O)cc5)CC4)CC3)nc3c2CCN(c2cccc4cccc(Cl)c24)C3)C[C@@H]1CC#N [Compound 211, (S)-2-(1-acryloyl-4-(7-(8-chloronaphthalen-1-yl)-2-(2-(4-(4-(4-(3-(2,4-dihydroxy-5-isopropylphenyl)-5-hydroxy-4H-1,2,4-triazol-4-yl)benzyl)piperidine-1-carbonyl)piperidin-1-yl)ethoxy)-5,6,7,8-tetrahydropyrido[3,4-d]pyrimidin-4-yl)piperazin-2-yl)acetonitrile]
< 0.1 | > 1 | > 1 | C=CC(=O)N1CCN(c2nc(OCCN3CCN(C(=O)c4ccc(-n5c(O)nnc5-c5cc(C(C)C)c(O)cc5O)cc4)CC3)nc3c2CCN(c2cccc4cccc(Cl)c24)C3)C[C@@H]1CC#N [Compound 195, (S)-2-(1-acryloyl-4-(7-(8-chloronaphthalen-1-yl)-2-(2-(4-(4-(3-(2,4-dihydroxy-5-isopropylphenyl)-5-hydroxy-4H-1,2,4-triazol-4-yl)benzoyl)piperazin-1-yl)ethoxy)-5,6,7,8-tetrahydropyrido[3,4-d]pyrimidin-4-yl)piperazin-2-yl)acetonitrile, trifluoroacetic acid]
< 0.1 | > 1 | 0.1 to 1 | C=CC(=O)N1CCN(c2nc(OC[C@@H]3CC[C@H](C(=O)N4CCN(Cc5cc(C(C)C)c(O)cc5O)CC4)N3C)nc3c2CCN(c2cccc4cccc(Cl)c24)C3)C[C@@H]1CC#N [Compound 329, 2-[(2S)-4[7-(8chloronaphthalen-1-yl)-2-{[(2S,5R)-5-{4-[(2,4-dihydroxy-5-isopropylphenyl)methyl]piperazine-1-carbonyl}-1-methylpyrrolidin-2-yl]methoxy}-5H,6H,8H-pyrido[3,4-d]pyrimidin-4-yl]-1-(prop-2-enoyl)piperazin-2-yl]acetonitrile]
< 0.1 | 0.1 to 1 | 0.1 to 1 | C=CC(=O)N1CCN(c2nc(OC[C@@H]3C[C@@H](NC(=O)C4CCN(Cc5ccc(-n6c(O)nnc6-c6cc(C)c(O)cc6O)cc5)CC4)CN3C)nc3c2CCN(c2cccc4cccc(Cl)c24)C3)C[C@@H]1CC#N [Compound 198, N-((3R,5S)-5-(((4-((S)-4-acryloyl-3-(cyanomethyl)piperazin-1-yl)-7-(8-chloronaphthalen-1-yl)-5,6,7,8-tetrahydropyrido[3,4-d]pyrimidin-2-yl)oxy)methyl)-1-methylpyrrolidin-3-yl)-1-(4-(3-(2,4-dihydroxy-5-methylphenyl)-5-hydroxy-4H-1,2,4-triazol-4-yl)benzyl)piperidine-4-carboxamide, trifluoroacetic acid]
< 0.1 | 0.1 to 1 | 0.1 to 1 | C=CC(=O)N1CCN(c2nc(OC[C@@H]3C[C@@H](OCC(=O)N4CCC(CN5CCN(Cc6ccc(-n7c(O)nnc7-c7cc(C(C)C)c(O)cc7O)cc6)CC5)CC4)CN3C)nc3c2CCN(c2cccc4cccc(Cl)c24)C3)C[C@@H]1CC#N [Compound 301, 2-((S)-1-acryloyl-4-(7-(8-chloronaphthalen-1-yl)-2-(((2S,4R)-4-(2-(4-((4-(4-(3-(2,4-dihydroxy-5-isopropylphenyl)-5-hydroxy-4H-1,2,4-triazol-4-yl)benzyl)piperazin-1-yl)methyl)piperidin-1-yl)-2-oxoethoxy)-1-methylpyrrolidin-2-yl)methoxy)-5,6,7,8-tetrahydropyrido[3,4-d]pyrimidin-4-yl)piperazin-2-yl)acetonitrile]
< 0.1 | 0.1 to 1 | < 0.1 | C=CC(=O)N1CCN(c2nc(OC[C@@H]3C[C@H](N4CCC(C(=O)N5CCN(CCNC(=O)c6nnc(-c7cc(C(C)C)c(O)cc7O)n6-c6ccccc6)CC5)CC4)CN3C)nc3c2CCN(c2cccc4cccc(Cl)c24)C3)C[C@@H]1CC#N [Compound 320, N-[2-(4-{1-[(3S,5S)-5-({[7-(8-chloronaphthalen-1-yl)-4-[(3S)-3-(cyanomethyl)-4-(prop-2-enoyl)piperazin-1-yl]-5H,6H,8H-pyrido[3,4-d]pyrimidin-2-yl]oxy}methyl)-1-methylpyrrolidin-3-yl]piperidine-4-carbonyl}piperazin-1-yl)ethyl]-5-(2,4-dihy-droxy-5-isopropylphenyl)-4-phenyl-1,2,4-triazole-3-carboxamide]
< 0.1 | < 0.1 | < 0.1 | C=CC(=O)N1CCN(c2nc(OC[C@@H]3C[C@H](NC(=O)C4CCN(C(=O)C5CCN(Cc6ccc(-n7c(C(=O)NCC(F)(F)C(F)(F)F)nnc7-c7cc(C(C)C)c(O)cc7O)cc6)CC5)CC4)CN3C)nc3c2CCN(c2cccc4cccc(Cl)c24)C3)C[C@@H]1CC#N [Compound 308, N-[(3S,5S)-5-({[7-(8-chloronaphthalen-1-yl)-4-[(3S)-3-(cyanomethyl)-4-(prop-2-enoyl)piperazin-1-yl]-5H,6H,8H-pyrido[3,4-d]pyrimidin-2-yl]oxy}methyl)-1-methylpyrrolidin-3-yl]-1-[1-({4-[3-(2,4-dihydroxy-5-isopropylphenyl)-5-[(2,2,3,3,3-pentafluoropropyl)carbamoyl]-1,2,4-triazol-4-yl]phenyl}methyl)piperidine-4-carbonyl]piperidine-4-carboxamide]
< 0.1 | > 1 | > 1 | C=CC(=O)N1CCN(c2nc(OC[C@@H]3C[C@@H](OC(=O)N4CCN(Cc5ccc(-n6c(O)nnc6-c6cc(CC)c(O)cc6O)cc5)CC4)CN3C)nc3c2CCN(c2cccc4cccc(Cl)c24)C3)C[C@@H]1CC#N [Compound 294, (3R,5S)-5-(((4-((S)-4-acryloyl-3-(cyanomethyl)piperazin-1-yl)-7-(8-chloronaphthalen-1-yl)-5,6,7,8-tetrahydropyrido[3,4-d]pyrimidin-2-yl)oxy)methyl)-1-methylpyrrolidin-3-yl 4-(4-(3-(5-ethyl-2,4-dihydroxyphenyl)-5-hydroxy-4H-1,2,4-triazol-4-yl)benzyl)piperazine-1-carboxylate]
